This note sets out measurements from paper PMC3953730 (FEBS Open Bio, 2014).

What is called IC50 is the concentration needed to halve the response being measured. Read a high IC50 as weaker potency in that assay.

The test has as its target β-secretase 1 (BACE1) (Homo sapiens, UniProt P56817). Nature of the test: in vitro fluorogenic peptide cleavage assay, dose response. In kind it is biochemical.

Sequence of β-secretase 1 (BACE1) (P56817 46-457): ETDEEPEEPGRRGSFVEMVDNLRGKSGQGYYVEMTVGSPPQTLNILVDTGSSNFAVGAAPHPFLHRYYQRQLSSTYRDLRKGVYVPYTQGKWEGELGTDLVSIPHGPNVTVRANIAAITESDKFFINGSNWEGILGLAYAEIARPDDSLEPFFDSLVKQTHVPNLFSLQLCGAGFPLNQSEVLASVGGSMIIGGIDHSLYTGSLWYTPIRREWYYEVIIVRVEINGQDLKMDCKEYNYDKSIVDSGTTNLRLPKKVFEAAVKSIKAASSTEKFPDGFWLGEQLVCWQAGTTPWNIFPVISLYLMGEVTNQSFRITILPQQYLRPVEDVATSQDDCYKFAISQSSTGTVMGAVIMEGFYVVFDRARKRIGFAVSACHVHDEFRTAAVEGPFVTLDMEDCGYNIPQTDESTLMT

The compound `O=P(O)(O)O[C@H]1[C@H](OP(=O)(O)O)[C@@H](OP(=O)(O)O)[C@H](OP(=O)(O)O)[C@@H](OP(=O)(O)O)[C@H]1OP(=O)(O)O` [IP6, myo-inositol hexakisphosphate] had an IC50 of around 250 nM.
